ChEMBL document CHEMBL1177843, “Metal based biologically active compounds: design, synthesis, and antibacterial/antifungal/cytotoxic properties of triazole-derived Schiff bases and their oxovanadium(IV) complexes” (Eur J Med Chem, 2010)
Converted amounts (≈) assume the structure as drawn.

Tests used:
Artemia salina = assay: Toxicity in Artemia salina nauplii assessed as mortality after 24 hrs; assay type: organism-based; conditions: in vivo
Escherichia coli = assay: Antibacterial activity against Escherichia coli at 1 mg/ml after 24 hrs by agar-well diffusion method; assay type: functional; conditions: for zone of inhibition at 1000 µg/mL: Escherichia coli, 24 h, read-out: DIZ
Shigella flexneri = assay: Antibacterial activity against Shigella flexneri at 1 mg/ml after 24 hrs by agar-well diffusion method; assay type: functional; conditions: for zone of inhibition at 1000 µg/mL: Shigella flexneri, 24 h, read-out: DIZ
Pseudomonas aeruginosa = assay: Antibacterial activity against Pseudomonas aeruginosa at 1 mg/ml after 24 hrs by agar-well diffusion method; assay type: functional; conditions: for zone of inhibition at 1000 µg/mL: Pseudomonas aeruginosa, 24 h, read-out: DIZ
Salmonella enterica = assay: Antibacterial activity against Salmonella typhi at 1 mg/ml after 24 hrs by agar-well diffusion method; assay type: functional, Salmonella enterica subsp. enterica serovar Typhi; conditions: for zone of inhibition at 1000 µg/mL: Salmonella enterica, 24 h, read-out: DIZ
Staphylococcus aureus = assay: Antibacterial activity against Staphylococcus aureus at 1 mg/ml after 24 hrs by agar-well diffusion method; assay type: functional; conditions: for zone of inhibition at 1000 µg/mL: Staphylococcus aureus, 24 h, read-out: DIZ
Bacillus subtilis = assay: Antibacterial activity against Bacillus subtilis at 1 mg/ml after 24 hrs by agar-well diffusion method; assay type: functional; conditions: for zone of inhibition at 1000 µg/mL: Bacillus subtilis, 24 h, read-out: DIZ
Trichophyton longifusum = assay: Antifungal activity against Trichophyton longifusum after 7 days; assay type: functional; conditions: 168 h
Candida albicans = assay: Antifungal activity against Candida albicans after 7 days; conditions: 168 h
Microsporum canis = assay: Antifungal activity against Microsporum canis after 7 days; assay type: functional; conditions: 168 h
Fusarium solani = assay: Antifungal activity against Fusarium solani after 7 days; assay type: functional; conditions: 168 h
Nakaseomyces glabratus = assay: Antifungal activity against Candida glabrata after 7 days; assay type: functional; conditions: 168 h
Aspergillus flavus = assay: Antifungal activity against Aspergillus flavus after 7 days; assay type: functional; conditions: 168 h

SMILES	LD50 (Artemia salina)	Activity (Escherichia coli)	zone of inhibition at 1000 µg/mL (Escherichia coli)	Activity (Shigella flexneri)	zone of inhibition at 1000 µg/mL (Shigella flexneri)	Activity (Pseudomonas aeruginosa)	zone of inhibition at 1000 µg/mL (Pseudomonas aeruginosa)	Activity (Salmonella enterica)	zone of inhibition at 1000 µg/mL (Salmonella enterica)	Activity (Staphylococcus aureus)	zone of inhibition at 1000 µg/mL (Staphylococcus aureus)	Activity (Bacillus subtilis)	zone of inhibition at 1000 µg/mL (Bacillus subtilis)	MIC (Trichophyton longifusum)	MIC (Candida albicans)	MIC (Microsporum canis)	MIC (Fusarium solani)	MIC (Nakaseomyces glabratus)	MIC (Aspergillus flavus)
C(=N\c1n[nH]c(/N=C/c2ccccn2)n1)/c1ccccn1	> 4.128 ×10⁻⁴ M/ml	43%	15 mm	58%	18 mm	43%	13 mm	43%	11 mm	58%	16 mm	43%	12 mm						
C/C(=N\c1n[nH]c(/N=C(\C)c2ccccn2)n1)c1ccccn1	> 3.341 ×10⁻⁴ M/ml	58%	17 mm	39%	12 mm	58%	18 mm	58%	16 mm	39%	11 mm	39%	13 mm						
Clc1ccc(COC(Cn2ccnc2)c2ccc(Cl)cc2Cl)c(Cl)c1 (centres undefined) [MICONAZOLE]														70 mg/L (≈ 168 µM)	111 mg/L (≈ 266 µM)	98.4 mg/L (≈ 236 µM)	73.2 mg/L (≈ 176 µM)	111 mg/L (≈ 266 µM)	
Oc1ccc2ccccc2c1/C=N/c1n[nH]c(/N=C/c2c(O)ccc3ccccc23)n1	> 7.614 ×10⁻⁴ M/ml	35%	11 mm	35%	13 mm	35%	11 mm	35%	14 mm	35%	12 mm	57%	16 mm						
C[C@@H]1[C@H](O)[C@@H](C)/C=C/C=C/C=C/C=C/C=C/C=C/C=C/[C@H](O[C@@H]2O[C@H](C)[C@@H](O)[C@H](N)[C@@H]2O)C[C@@H]2O[C@](O)(C[C@@H](O)C[C@@H](O)[C@H](O)CC[C@@H](O)C[C@@H](O)CC(=O)O[C@H]1C)C[C@H](O)[C@H]2C(=O)O [AMPHOTERICIN B]																			20 mg/L (≈ 21.6 µM)
C[C@@H](O)[C@H]1C(=O)N2C(C(=O)O)=C(SCCNC=N)C[C@H]12 [IMIPENEM ANHYDROUS]			29 mm		31 mm		30 mm		29 mm		26 mm		28 mm						
C(=N\c1n[nH]c(/N=C/c2ccc[nH]2)n1)/c1ccc[nH]1	> 6.897 ×10⁻⁴ M/ml	55%	17 mm	39%	12 mm	39%	14 mm	55%	16 mm	39%	11 mm	39%	13 mm						
